Consider four compounds from the NIST ThermoML archive (doi:10.1016/j.fluid.2013.10.034).

SMILES strings stand for the structures. ± gives the expanded uncertainty stated by the source.

The conditions of series [1]: 298.15 K; 101.33 kPa; Liquid; Vibrating tube method.
Series [2] in a line: refractive index (Na D-line) (dimensionless). Particulars: 298.15 K; 101.33 kPa; Liquid; Standard Abbe refractometry.

On to `CC(=O)CC(C)C` [4-methylpentan-2-one], for which the mass density in series [1] was determined as 795.94 ± 0.14 kg/m3. Also, in series [2], the refractive index was found to be 1.3936 ± 0.0005. Take `CC(C)O` [propan-2-ol]: the mass density in series [1] is on record as 782.7 ± 0.15 kg/m3. Besides, in series [2], the refractive index is given as 1.3754 ± 0.0005. Turning to `O` [water], the refractive index in series [2] is listed as 1.3325 ± 0.0005. On to `CCCO` [propan-1-ol], for which the mass density in series [1] was determined as 799.62 ± 0.11 kg/m3. In addition, in series [2], the refractive index came out at 1.3836 ± 0.0005.

As usually defined, the mass density is mass per unit of volume. The term refractive index denotes a measure of how strongly the sample bends light.
